According to patent US4542123A (Massachusetts Institute of Technology, priority 1982, dated 1985):
“Also recorded” adds a separate entry of the source.

What was measured:
[1] = Plasma amino acid levels after glucose ingestion (Example I, Table 1); type: in vivo, human
Procedure: (§1) Six healthy, non-obese, fasting subjects each received, on different days 0, 6, 12.5, 25 or 50 g of glucose (Glucola) in a total volume of 100 ml.
(§2) Following a protocol approved by the Massachusetts Institute of Technology Committee on the Use of Humans as Experimental Subjects, 6 healthy volunteer outpatients, aged 25-33 years, participated in the study; 3 were males and 3 females. Mean weight was 60 kg for the women and 70 for the men; all subjects were within 10% of their ideal body weight as determined by Metropolitan Life Insurance Company tables. […] Subjects were asked to take meals rich in carbohydrate content (about 300 g/day) for 3 days before beginning the study. On 5 separate days, each subject fasted from 8 p.m. until 9 the next morning and then received a load of 0, 6, 12.5, 25 or 50 g of glucose (caffeine-free glucola) dissolved in water in a total volume of 100 ml; the order of doses was randomized. Venous blood samples were drawn from the antecubital vein through an indwelling catheter at 0, 60 and 120 min for all doses and additionally at 30 and 180 min for the 12.5, 25 and 50 g doses. Blood was collected in heparanized tubes; after centrifugation plasma was stored at -20° C. until analyzed. […] Glucose was analyzed spectrophotometrically after reaction with O-toluidine in hot acidic acid (Sigma Bulletin #635;15). Insulin was measured using a commercial radioimmunoassay kit by a double antibody method (Bio-RIA, Louisville, Ky.). Plasma tryptophan was measured fluorometrically on 20 μl plasma aliquots by the method of Denckla and Dewey, J. Lab. Clin. Med. 69: 160-169, 1967, as modified by Lehman, Scand. J. Clin. Lab. Invest. 28: 49-55, 1971. Branched-chain amino acids and aromatic amino acids were measured in 500 μl aliquots of plasma, deproteinized with sulfosalicylic acid, using a Beckman amino acid analyzer (Beckman Instruments, Palo Alto, Calif., Model 119C).
(§3) Data, given as means ±SE errors, were analyzed by two-way analysis of variance; factors compared were dose and time. The Scheffe test was employed to test the statistical significance of differences; p<0.05 was considered significant. Areas under the curves were evaluated by the method of trapezoid approximation. Student tests for paired data were used to evaluate the significance of changes in individual amino acids. Amino acid concentrations after treatments for each subject were also expressed as a percentage of that day's pretreatment levels; mean percent changes were then calculated for each treatment and time interval.
Sum of the LNAA: total concentration of leucine, isoleucine, valine,
the sum of the LNAA, measured 0, 60 and 120 min after 6 nonobese, fasting
subjects ingested 0, 6, 12.5, 25 or 50 g of glucose. All plasma amino
acids, except tryptophan, were measured on a Beckman amino acid analyzer.
Tryptophan was measured by the method of Denckla and Dewey. Data are
expressed as means ± S.E.M.

[2] = Plasma insulin after glucose ingestion, radioimmunoassay (Example I); type: in vivo, human
Procedure: as §1, §2, §3

clinical = details: in vivo
Procedure: as §1
as §2, with “Venous blood samples were drawn from the antecubital vein through an indwelling catheter at 0, 60 and 120 min for all doses and additionally at 30 and 180 min for the 12.5, 25 and 50 g doses.” left out, “Clin. Med. 69: 160-169, 1967, as modified by Lehman, Scand. J. Clin. Lab. Invest. 28: 49-55, 1971.” left out
Data, given as means ±SE errors, were analyzed by two-way analysis of variance; factors compared were dose and time. […] Areas under the curves were evaluated by the method of trapezoid approximation. […] Amino acid concentrations after treatments for each subject were also expressed as a percentage of that day's pretreatment levels; mean percent changes were then calculated for each treatment and time interval.

Mean plasma glucose concentration (clinical; human): 83±2.2 mg % | concentration at 0.5 h (clinical; human, po, Mean plasma glucose concentration): 1050 ± 86 µg/mL | Time for plasma glucose to return to baseline (clinical): 60 to 120 min
SMILES: O=C[C@H](O)[C@@H](O)[C@H](O)[C@H](O)CO [Glucose, glucose]
Plasma Iso level ([1]; glucose 25 g, 0 min): 71 ± 6 nmol/mL | Plasma LNAA (sum) ([1]; glucose 25 g, 0 min): 639 ± 79 nmol/mL | Plasma Leu level ([1]; glucose 25 g, 0 min): 130 ± 13 nmol/mL | Plasma Met level ([1]; glucose 25 g, 0 min): 26 ± 3 nmol/mL | Plasma Phe level ([1]; glucose 25 g, 0 min): 56 ± 3 nmol/mL | Plasma Trp level ([1]; glucose 25 g, 0 min): 47 ± 2 nmol/mL | Plasma Tyr level ([1]; glucose 25 g, 0 min): 63 ± 3 nmol/mL | Plasma Val level ([1]; glucose 25 g, 0 min): 294 ± 50 nmol/mL | Trp/LNAA ([1]; glucose 25 g, 0 min): .073 | Plasma Iso level ([1]; glucose 25 g, 60 min): 48 ± 4 nmol/mL | Plasma LNAA (sum) ([1]; glucose 25 g, 60 min): 466 ± 45 nmol/mL | Plasma Leu level ([1]; glucose 25 g, 60 min): 84 ± 10 nmol/mL | Plasma Met level ([1]; glucose 25 g, 60 min): 21 ± 2 nmol/mL | Plasma Phe level ([1]; glucose 25 g, 60 min): 47 ± 4 nmol/mL | Plasma Trp level ([1]; glucose 25 g, 60 min): 42 ± 2 nmol/mL | Plasma Tyr level ([1]; glucose 25 g, 60 min): 49 ± 2 nmol/mL | Plasma Val level ([1]; glucose 25 g, 60 min): 218 ± 29 nmol/mL | Trp/LNAA ([1]; glucose 25 g, 60 min): .091 | Plasma Iso level ([1]; glucose 25 g, 120 min): 46 ± 4 nmol/mL | Plasma LNAA (sum) ([1]; glucose 25 g, 120 min): 454 ± 40 nmol/mL | Plasma Leu level ([1]; glucose 25 g, 120 min): 91 ± 8 nmol/mL | Plasma Met level ([1]; glucose 25 g, 120 min): 19 ± 2 nmol/mL | Plasma Phe level ([1]; glucose 25 g, 120 min): 41 ± 2 nmol/mL | Plasma Trp level ([1]; glucose 25 g, 120 min): 41 ± 3 nmol/mL | Plasma Tyr level ([1]; glucose 25 g, 120 min): 46 ± 2 nmol/mL | Plasma Val level ([1]; glucose 25 g, 120 min): 212 ± 26 nmol/mL | Trp/LNAA ([1]; glucose 25 g, 120 min): .089 | Plasma Iso level ([1]; glucose 50 g, 0 min): 61 ± 4 nmol/mL | Plasma LNAA (sum) ([1]; glucose 50 g, 0 min): 573 ± 60 nmol/mL | Plasma Leu level ([1]; glucose 50 g, 0 min): 114 ± 11 nmol/mL | Plasma Met level ([1]; glucose 50 g, 0 min): 26 ± 2 nmol/mL | Plasma Phe level ([1]; glucose 50 g, 0 min): 50 ± 2 nmol/mL | Plasma Trp level ([1]; glucose 50 g, 0 min): 46 ± 2 nmol/mL | Plasma Tyr level ([1]; glucose 50 g, 0 min): 59 ± 4 nmol/mL | Plasma Val level ([1]; glucose 50 g, 0 min): 262 ± 40 nmol/mL | Trp/LNAA ([1]; glucose 50 g, 0 min): .080 | Plasma Iso level ([1]; glucose 50 g, 60 min): 48 ± 2 nmol/mL | Plasma LNAA (sum) ([1]; glucose 50 g, 60 min): 469 ± 52 nmol/mL | Plasma Leu level ([1]; glucose 50 g, 60 min): 93 ± 11 nmol/mL | Plasma Met level ([1]; glucose 50 g, 60 min): 21 ± 2 nmol/mL | Plasma Phe level ([1]; glucose 50 g, 60 min): 50 ± 4 nmol/mL | Plasma Trp level ([1]; glucose 50 g, 60 min): 40 ± 1 nmol/mL | Plasma Tyr level ([1]; glucose 50 g, 60 min): 43 ± 3 nmol/mL | Plasma Val level ([1]; glucose 50 g, 60 min): 215 ± 32 nmol/mL | Trp/LNAA ([1]; glucose 50 g, 60 min): .085 | Plasma Iso level ([1]; glucose 50 g, 120 min): 36 ± 4 nmol/mL | Plasma LNAA (sum) ([1]; glucose 50 g, 120 min): 372 ± 50 nmol/mL | Plasma Leu level ([1]; glucose 50 g, 120 min): 72 ± 10 nmol/mL | Plasma Met level ([1]; glucose 50 g, 120 min): 18 ± 2 nmol/mL | Plasma Phe level ([1]; glucose 50 g, 120 min): 37 ± 2 nmol/mL | Plasma Trp level ([1]; glucose 50 g, 120 min): 35 ± 2 nmol/mL | Plasma Tyr level ([1]; glucose 50 g, 120 min): 40 ± 4 nmol/mL | Plasma Val level ([1]; glucose 50 g, 120 min): 170 ± 30 nmol/mL | Trp/LNAA ([1]; glucose 50 g, 120 min): .094 | Mean percent reductions of LNAA, dose-dependence ([1]; healthy fasting subjects, most clearly observed after 120 min): tended to exhibit dose-dependence; also recorded: dose-related decreases in plasma LNAA concentrations | Glucose doses needed to increase the plasma TRP/LNAA ratio ([1]; healthy young fasting subjects): 25 to 50 g | Mean absolute LNAA concentrations, dose-related decrease ([1]; high intra- and inter-individual variations in basal LNAA): no significant dose-related decreases in mean absolute LNAA concentrations | Tryptophan/LNAA ratio ([1]; smaller reduction in plasma tryptophan): became elevated | Glucose dose sufficient to decrease LNAA ([1]; some subjects): 6 g | Glucose dose probably required to reduce plasma LNAA ([1]; subject 2): ~12.5 g | Glucose dose that may have been needed to reduce plasma LNAA ([1]; subject 4): ~25 g | Glucose dose that may have been sufficient to reduce plasma LNAA ([1]; subjects 1, 3, 5 and 6, one or more of the times tested): ~6 g | Elevation in insulin, 50-g vs 25-g dose ([2]; 50 g vs 25 g glucose): greater elevation in insulin than the 25-g dose in 4 of the 6 subjects | Insulin levels ([2]; 30 min after 12.5, 25 or 50 g of glucose): significantly elevated | Mean insulin concentration ([2]; before ingestion (baseline)): 9±0.9 μU/ml | Mean insulin concentration ([2]; glucose 12.5 g, 30 min): 21.3±3.8 μU/ml | Mean insulin concentration ([2]; glucose 25 g, 30 min): 44±5.0 μU/ml | Mean insulin concentration ([2]; glucose 50 g, 30 min): 58±6.9 μU/ml
